# From US20230067159A1, “ROR-GAMMA-T INHIBITOR, PREPARATION METHOD THEREOF AND USE THEREOF” (priority 2020, published 2023)
# Biological target: T1, RORγ (Homo sapiens, UniProt P51449)
# T1 construct: The concentration of B-RORγ LBD was 40 nM
# T1 sequence (P51449 269-508 limits assumed): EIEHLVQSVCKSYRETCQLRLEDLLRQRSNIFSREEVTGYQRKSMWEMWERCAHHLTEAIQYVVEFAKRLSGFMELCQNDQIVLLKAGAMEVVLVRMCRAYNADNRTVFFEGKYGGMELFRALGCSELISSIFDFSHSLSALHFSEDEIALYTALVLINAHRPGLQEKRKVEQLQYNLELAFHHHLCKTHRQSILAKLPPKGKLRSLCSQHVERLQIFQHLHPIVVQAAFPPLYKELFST
# Experiment: Fluorescence resonance energy transfer (FRET) test, B-RORγ LBD / Biotin-SRC1
# Assay type: biochemical
# Settings: not given
# Procedure: Biological Example 1 Fluorescence Resonance Energy Transfer (FRET) Test
# (1) Preparation of RORγ Test Buffer and 10 mM of DTT
# 100 mL of 1× Basic test buffer (HEPES (pH 7.4), 100 mM NaCl, 0.01% BSA) was prepared, and 154.25 mg of DTT was added. The mixture was well mixed.
# (2) Preparation of Compound with Gradient Concentration
# a. Standard compound was prepared: Standard compound was diluted with 100% DMSO to 2.5 mM, then diluted 3-fold with 11 serial dilutions to a final concentration of […];
# b. Test compound was prepared referring to the standard compound.
# (3) Preparation of 1× Protein Solution Mixture
# (§1) a. Preparation of the desired amount of 2× B-RORγ LBD/SA-APC protein mixture: The concentration of B-RORγ LBD was 40 nM, and the concentration of SA-APC was 20 nM. They were mixed by gently inversion, and incubated at room temperature for 15 minutes. Then 400 nM of biotin was added. The mixture was mixed by gently inversion, and incubated at room temperature for 10 minutes;
# as §1, with “b.” for “a.”, “Biotin-SRC1/SA-eu” for “B-RORγ LBD/SA-APC”, “Bioin-SRC1” for “B-RORγ LBD”, “SA-eu” for “SA-APC”, “200” for “400”
# c. The protein mixtures prepared in step a and step b were mixed at a ratio of 1:1, and incubated at room temperature for 5 minutes;
# d. 25 μL of the mixture from step c was added to the 384-well plate containing the test compound;
# e. The mixture was centrifuged at 1000 rpm for one minute;
# f. The mixture was incubated for 1 hour at room temperature.
# (4) Data Collection and Calculation
# After incubation at room temperature for 1 hour, the fluorescence values at 665 nm and 615 nm were measured with an EnVision plate reader, and the inhibition rate was calculated.
# Inhibition rate %)=[(X−Min)/(Max−Min)]×100%
# X is the fluorescence value ratio of “665/615” of the test compound; Min is the average value of “665/615” of the DMSO blank control; Max is the average value of “665/615” of the 10 μM SRC.
row,Compound,IC50
1,CCS(=O)(=O)c1ccc([C@H](CO)NC(=O)c2ccc(N3C[C@H](Oc4ccc(C(F)(F)F)cc4)C[C@H]3COCCC(F)F)cc2)cc1 [Example 44],51 nM
2,CCC(F)(F)OC[C@@H]1C[C@H](Oc2ccc(C(F)(F)F)cc2)CN1c1ccc(C(=O)N[C@@H](CO)c2ccc(S(=O)(=O)CC)cc2)cc1 [Example 45],17 nM
3,CCS(=O)(=O)c1ccc([C@H](CO)NC(=O)c2ccc(N3C[C@H](Oc4ccc(C(F)(F)F)cc4)C[C@H]3CCOC(F)F)cc2)cc1 [Example 46],13.2 nM
4,CCS(=O)(=O)c1ccc([C@H](CO)NC(=O)c2ccc(N3C[C@@H](Oc4ccc(C(F)(F)F)cc4)C[C@H]3CCOC(F)F)cc2)cc1 [Example 47],4.6 nM
5,CCS(=O)(=O)c1ccc([C@H](CO)NC(=O)c2ccc(N3C[C@H](Oc4ccc(C(F)(F)F)cc4)C[C@H]3COCC3CC3)nc2)cc1 [Example 50],52 nM
6,CCS(=O)(=O)c1ccc([C@H](CO)NC(=O)c2ccc(N3C[C@H](Oc4ccc(C(F)(F)F)cc4)C[C@H]3COC(F)F)nc2)cc1 [Example 52],49.9 nM
7,CCS(=O)(=O)c1ccc([C@H](CO)NC(=O)c2ccc(N3C[C@@H](Oc4ccc(C(F)(F)F)cc4)C[C@H]3COC(F)F)nc2)cc1 [Example 53],3 nM
8,CCC(F)(F)OC[C@@H]1C[C@H](Oc2ccc(C(F)(F)F)cc2)CN1c1ccc(C(=O)N[C@@H](CO)c2ccc(S(=O)(=O)CC)cc2)cn1 [Example 55],9 nM
9,"CCS(=O)(=O)c1ccc(CNC(=O)c2cnc(N3C[C@H](Oc4ccc(C(F)(F)F)cc4)C[C@H]3COCCF)nc2)cc1 [Example 58, N-(4-(ethylsulfonyl)benzyl)-2-((2S, 4R)-2-((2-fluoroethoxy)methyl)-4-(4-(trifluoromethyl)phenoxy)pyrrolidin-1-yl)pyrimidine-5-carboxamide]",57.3 nM
10,"CCS(=O)(=O)c1ccc([C@H](CO)NC(=O)c2cnc(N3C[C@H](Oc4ccc(C(F)(F)F)cc4)C[C@H]3COCCF)nc2)cc1 [Example 59, N—((R)-1-(4-(ethylsulfonyl)phenyl)-2-hydroxyethyl)-2-((2S,4R)-2-((2-fluoroethoxy)methyl)-4-(4-(trifluoromethyl)phenoxy)pyrrolidin-1-yl)pyrimidine-5-carboxamide]",28 nM
11,CCS(=O)(=O)c1ccc([C@H](CO)NC(=O)c2cnc(N3C[C@H](Oc4ccc(C(F)(F)F)cc4)C[C@H]3COCC3CC3)nc2)cc1 [Example 60],33.8 nM
12,CCS(=O)(=O)c1ccc([C@H](CO)NC(=O)c2cnc(N3C[C@H](Oc4ccc(C(F)(F)F)cc4)C[C@H]3CCOC(F)F)nc2)cc1 [Example 63],48 nM
13,CCS(=O)(=O)c1ccc([C@H](CO)NC(=O)c2cnc(N3C[C@@H](Oc4ccc(C(F)(F)F)cc4)C[C@H]3COC(F)F)nc2)cc1 [Example 64],3 nM
14,CCC(F)(F)OC[C@@H]1C[C@H](Oc2ccc(C(F)(F)F)cc2)CN1c1ncc(C(=O)N[C@@H](CO)c2ccc(S(=O)(=O)CC)cc2)cn1 [Example 67],8 nM
15,CCS(=O)(=O)c1ccc([C@H](CO)NC(=O)c2ccc(N3C[C@H](Oc4ccc(C(F)(F)F)cc4)C[C@H]3COC(F)F)cc2)nc1 [Example 68],75.3 nM
16,CCS(=O)(=O)c1ccc([C@H](CO)NC(=O)c2ccc(N3C[C@@H](Oc4ccc(C(F)(F)F)cc4)C[C@H]3COC(F)F)cc2)nc1 [Example 69],4 nM
17,CCS(=O)(=O)c1ccc([C@H](CO)NC(=O)c2ccc(N3C[C@@H](Oc4ccc(C(F)(F)F)cc4)C[C@H]3COC(F)F)nc2)nc1 [Example 70],7.6 nM
18,CCS(=O)(=O)c1ccc([C@H](CO)NC(=O)c2cnc(N3C[C@@H](Oc4ccc(C(F)(F)F)cc4)C[C@H]3COC(F)F)nc2)nc1 [Example 71],9.3 nM

row,Compound,IC50
1,CCC(F)(F)OC[C@@H]1C[C@H](Oc2ccc(C(F)(F)F)cc2)CN1c1ccc(C(=O)N[C@@H](CO)c2ccc(S(=O)(=O)CC)cn2)cc1 [Example 73],13 nM
2,CCC(F)(F)OC[C@@H]1C[C@H](Oc2ccc(C(F)(F)F)cc2)CN1c1ccc(C(=O)N[C@@H](CO)c2ccc(S(=O)(=O)CC)cn2)cn1 [Example 74],11 nM
3,CCC(F)(F)OC[C@@H]1C[C@H](Oc2ccc(C(F)(F)F)cc2)CN1c1ncc(C(=O)N[C@@H](CO)c2ccc(S(=O)(=O)CC)cn2)cn1 [Example 75],12.1 nM
4,"CCS(=O)(=O)c1ccc([C@H](CO)NC(=O)c2ccc(N3CC[C@H](Oc4ccc(C(F)(F)F)cc4)C3)c(F)c2)cc1 [Example 79, N—((R)-1-(4-(ethylsulfonyl)phenyl)-2-hydroxyethyl)-3-fluoro-4-((S)-3-(4-(trifluoromethyl)phenoxy)pyrrolidin-1-yl)benzamide]",13 nM
5,"CCS(=O)(=O)c1ccc([C@H](CO)NC(=O)c2cnc(N3CC[C@H](Oc4ccc(C(F)(F)F)cc4)C3)c(F)c2)cc1 [Example 81, N—((R)-1-(4-(ethylsulfonyl)phenyl)-2-hydroxyethyl)-5-fluoro-6-((S)-3-(4-(trifluoromethyl)phenoxy)pyrrolidin-1-yl)nicotinamide]",78 nM
6,"CCS(=O)(=O)c1ccc([C@H](CO)NC(=O)c2ccc(N3C[C@@H](Oc4ccc5c(c4)OC(F)(F)O5)C[C@H]3COC(F)F)cc2)cc1 [Example 82, 4-((2S,4S)-4-((2,2-difluorobenzo[d][1,3]dioxol-5-yl)oxy)-2-((difluoromethoxy)methyl)pyrrolidin-1-yl)-N—((R)-1-(4-(ethylsulfonyl)phenyl)-2-hydroxyethyl)benzamide]",4 nM
7,CCS(=O)(=O)c1ccc([C@H](CO)NC(=O)c2ccc(N3C[C@@H](Oc4ccc(C(F)(F)F)nc4)C[C@H]3COC(F)F)cc2)cc1 [Example 83],6 nM
8,CCS(=O)(=O)c1ccc([C@H](CO)NC(=O)c2ccc(N3C[C@@H](Oc4ccc(C(F)(F)F)cc4)C[C@H]3COC(F)F)c(F)c2)cc1 [Example 85],4.5 nM
9,CCS(=O)(=O)c1ccc([C@H](CO)NC(=O)c2ccc(N3C[C@@H](Oc4ccc(C(F)(F)F)cc4)C[C@H]3COC(F)F)cc2F)cc1 [Example 86],6 nM
10,CCS(=O)(=O)c1ccc([C@H](CO)NC(=O)c2ccc(N3C[C@@H](Oc4ccc(C(F)(F)F)cc4)C[C@H]3COC(F)F)nc2OC)cc1 [Example 88],30 nM
11,CCS(=O)(=O)c1ccc([C@H](CO)NC(=O)c2ccc(N3C[C@@H](Oc4ccc(C(F)(F)F)cc4)C[C@H]3COC(F)F)c(OC)c2)cc1 [Example 89],26 nM
12,CCS(=O)(=O)c1ccc([C@H](CO)NC(=O)c2ccc(N3C[C@@H](Oc4ccc(C(F)(F)F)cc4)C[C@H]3COC(F)F)cc2OC)cc1 [Example 90],30 nM
13,"CCS(=O)(=O)c1ccc([C@H](CO)NC(=O)c2ccc(N3C[C@@H](Oc4ccc(C(F)(F)F)cc4)C[C@H]3COC(F)(F)F)nc2)cc1 [Example 94, N—((R)-1-(4-(ethylsulfonyl)phenyl)-2-hydroxyethyl)-6-((2S,4S)-2-((trifluoromethoxy)methyl)-4-(4-(trifluoromethyl)phenoxy)pyrrolidin-1-yl)nicotinamide]",8 nM
14,"CCS(=O)(=O)c1ccc([C@H](CO)NC(=O)c2cnc(N3C[C@H](Oc4ccc(C(F)(F)F)cc4)C[C@H]3COC(F)(F)F)nc2)cc1 [Example 95, N—((R)-1-(4-(ethylsulfonyl)phenyl)-2-hydroxyethyl)-2-((2S,4R)-2-((trifluoromethoxy)methyl)-4-(4-(trifluoromethyl)phenoxy)pyrrolidin-1-yl)pyrimidine-5-carboxamide]",45 nM
15,"CCS(=O)(=O)c1ccc([C@H](CO)NC(=O)c2ccc(N3C[C@@H](Oc4ccc(C(F)(F)F)cc4)C[C@H]3COC(F)(F)F)cc2C#N)cc1 [Example 96, 2-cyano-N—((R)-1-(4-(ethylsulfonyl)phenyl)-2-hydroxyethyl)-4-((2S,4S)-2-((trifluoromethoxy)methyl)-4-(4-(trifluoromethyl)phenoxy)pyrrolidin-1-yl)benzamide]",64 nM
16,CCS(=O)(=O)c1ccc([C@@H](CO)NC(=O)c2ccc(N3C[C@@H](Oc4ccc(C(F)(F)F)cc4)C[C@H]3COC(F)F)cc2)cc1 [Example 98],17 nM
17,CCS(=O)(=O)c1ccc(CNC(=O)c2ccc(N3C[C@@H](Oc4ccc(OC(F)(F)F)cn4)C[C@H]3COC(F)F)cc2)cc1 [Example 107],78 nM

# Same assay, conditions: inhibitory activity of RORγ at the molecular level, FRET 665/615; read-out: IC50
row,Compound,IC50
1,CCS(=O)(=O)c1ccc([C@H](CO)NC(=O)c2ccc(N3C[C@H](Oc4ccc(C(F)(F)F)cc4)C[C@H]3COC(C)(F)F)cc2)cc1 [Example 42],17.8 nM
